Legend:
Assay type in all cases: cell-based
[1] = test system: TNFα induced ACH-2 cells (HIV IIIB provirus); test: ACH-2 latent infection assay, supernatant reverse transcriptase activity
Procedure: (§1) U1 and ACH-2 cells were obtained from the AIDS Research and Reference Reagent Program and maintained under standard culture conditions in RPMI 1640 supplemented with 10% fetal bovine serum (heat inactivated), supplemented with 2 mM […], 100U/ml penicillin and 100 μg/ml, streptomycin. U1 cells were derived from the histocytic leukemia cell line U937, and contain a single integrated copy (HIV IIIB) […] a cytokine and/or phorbol inducible provirus. ACH-2 cells are derived from the A3.01 T lymphoblastic cell line, and contain 2 copies of the HIV IIIB provirus, however only one is cytokine and/or phorbol inducible. Cultures were maintained in such a way as to ensure exponential growth of the populations. At the time of the assay, cells were collected by centrifugation and counted by hemacytometer. If cell viability by Trypan Blue dye exclusion was less than 70% the assay was terminated. The cells were adjusted to 5×10^4 cells/mL and 100 μL, placed in 96 well plates with 100 μL media containing a final concentration of […] TNFα and the test compound. Cultures were incubated for 3 days and supernatants harvested. Compound toxicity was determined by MTS dye reduction. Virus expression was measured by supernatant reverse transcriptasc activity.
(§2) Reverse transcriptase activity was measured in cell-free supernatants. Tritiated thymidine triphosphate (NEN) (TTP) was resuspended in distilled H2O at 5 Ci/mL. Poly rA and oligo dT were prepared as a stock solution which was kept at −20° C. The RT reaction buffer was prepared fresh on a daily basis and consists of 125 μL 1.0 M EGTA, 125 μL dH2O, 110 μL 10% SDS, 50 μL 1.0 M Tris (pH 7.4), 50 μL, 1.0 M DTT, and 40 μL 1.0 M MgCl2. These three solutions were mixed together in a ratio of 2 parts TTP, 1 part poly rA:oligo dT, and 1 part reaction buffer. Ten microliters of this reaction mixture was placed in a round bottom microtiter plate and 15 μL of virus containing supernatant was added and mixed. The plate was incubated at 37° C. in a water bath with a solid support to prevent submersion of the plate and incubated for 60 minutes. Following reaction, the reaction volume was spotted onto pieces of DE81 paper, washed 5 times for 5 minutes each in a 5% sodium phosphate buffer, 2 times for 1 minute each in distilled water, 2 times for 1 minute each in 70% ethanol, and then dried. Opti-Fluor O was added to each sample and incorporated radioactivity was quantitated utilizing a Wallac 1450 Microbetaplus liquid scintillation counter.

[2] = test system: TNFα induced U1 cells (HIV IIIB provirus); test: U1 latent infection assay, supernatant reverse transcriptase activity; conditions: for % VC / RT ACTIVITY (cpm) MEAN: exp 2; for RT VALUES (cpm) MEAN / X VC: exp 1
Procedure: as §1, §2

HeLa CD4 LTR β-gal cells = test: Cytotoxicity for HeLa CD4 LTR β-gal cells
Procedure: At assay termination the assay plates were stained with the soluble tetrazolium-based dye MTS (CellTiter® Reagent, Promega) to determined cell viability and quantify compound toxicity. […] At termination of the assay 20 μL of MTS reagent was added per well. The wells were incubated for 4 h at 37° C., 5% CO2. Adhesive plate scalers were used in place of the lids, the sealed plate was inverted several times to mix the soluble formazan product and the plate was read spectrophotometrically at 490 nm with a 650 nm reference wavelength on a Molecular Devices Vmax plate reader.
This cell line represents one of 3 standard models for performing time of addition assays.

HIV = test: HeLa CD4 LTR β-gal time of addition assay; conditions: single round, high M.O.I.
Source text: This time of addition assay measures reproducible events from initial virus binding to the trans activation of the β-galactosidase reporter by newly produced Tat protein. This is a single round of infection assay and is thus “cleaner” and more “precise” than a multi-round time of addition assay. […] Since it is hypothesized that the K and Z compounds work by interfering with virus transcription the later possibility seems more likely. Thus the use of a time of addition assay with PBMCs was utilized.

Zinc Iodiscorbate [Compound Z]
activity in the ACH-2 assay [1]: inactive | % VC ([1]; 0.00063 μg/ml, exp 2): 96.4% | RT ACTIVITY MEAN ([1]; 0.00063 μg/ml, exp 2): 18594 cpm | % VC ([1]; 0.002 μg/ml, exp 2): 106.4% | RT ACTIVITY MEAN ([1]; 0.002 μg/ml, exp 2): 20516 cpm | % VC ([1]; 0.00625 μg/ml, exp 2): 100.6% | RT ACTIVITY MEAN ([1]; 0.00625 μg/ml, exp 2): 19411 cpm | % VC ([1]; 0.02 μg/ml, exp 2): 116.0% | RT ACTIVITY MEAN ([1]; 0.02 μg/ml, exp 2): 22382 cpm | % VC ([1]; 0.0625 μg/ml, exp 2): 111.6% | RT ACTIVITY MEAN ([1]; 0.0625 μg/ml, exp 2): 21532 cpm | % VC ([1]; 0.2 μg/ml, exp 2): 114.0% | RT ACTIVITY MEAN ([1]; 0.2 μg/ml, exp 2): 21983 cpm | % VC ([1]; 0.625 μg/ml, exp 2): 104.2% | RT ACTIVITY MEAN ([1]; 0.625 μg/ml, exp 2): 20108 cpm | % VC ([1]; 2 μg/ml, exp 2): 104.5% | RT ACTIVITY MEAN ([1]; 2 μg/ml, exp 2): 20151 cpm | % VC ([1]; 6.25 μg/ml, exp 2): 60.8% | RT ACTIVITY MEAN ([1]; 6.25 μg/ml, exp 2): 11729 cpm | % VC ([1]; 20 μg/ml, exp 2): 5.1% | RT ACTIVITY MEAN ([1]; 20 μg/ml, exp 2): 982 cpm | % VC ([1]; 62.5 μg/ml, exp 2): 0.83% | RT ACTIVITY MEAN ([1]; 62.5 μg/ml, exp 2): 160 cpm | % VC ([1]; 200 μg/ml, exp 2): 0.41% | RT ACTIVITY MEAN ([1]; 200 μg/ml, exp 2): 80 cpm | % VC ([1]; 0.00063 μG/Ml, exp 1): 107.6% | RT ACTIVITY (cpm) MEAN ([1]; 0.00063 μG/Ml, exp 1): 71887 cpm | % VC ([1]; 0.002 μG/Ml [c9], exp 1): 107.8% | RT ACTIVITY (cpm) MEAN ([1]; 0.002 μG/Ml [c9], exp 1): 71981 cpm | % VC ([1]; 0.002 μG/Ml [c11], exp 1): 107.5% | RT ACTIVITY (cpm) MEAN ([1]; 0.002 μG/Ml [c11], exp 1): 71843 cpm | % VC ([1]; 0.00625 μG/Ml, exp 1): 93.3% | RT ACTIVITY (cpm) MEAN ([1]; 0.00625 μG/Ml, exp 1): 62338 cpm | % VC ([1]; 0.0625 μG/Ml, exp 1): 123.3% | RT ACTIVITY (cpm) MEAN ([1]; 0.0625 μG/Ml, exp 1): 82351 cpm | % VC ([1]; 0.2 μG/Ml, exp 1): 116.0% | RT ACTIVITY (cpm) MEAN ([1]; 0.2 μG/Ml, exp 1): 77521 cpm | % VC ([1]; 0.625 μG/Ml, exp 1): 118.9% | RT ACTIVITY (cpm) MEAN ([1]; 0.625 μG/Ml, exp 1): 79421 cpm | % VC ([1]; 2 μG/Ml, exp 1): 114.0% | RT ACTIVITY (cpm) MEAN ([1]; 2 μG/Ml, exp 1): 76125 cpm | % VC ([1]; 6.25 μG/Ml, exp 1): 112.7% | RT ACTIVITY (cpm) MEAN ([1]; 6.25 μG/Ml, exp 1): 75319 cpm | % VC ([1]; 20 μG/Ml, exp 1): 107.9% | RT ACTIVITY (cpm) MEAN ([1]; 20 μG/Ml, exp 1): 72063 cpm | % VC ([1]; 62.5 μG/Ml, exp 1): 3.27% | RT ACTIVITY (cpm) MEAN ([1]; 62.5 μG/Ml, exp 1): 2186 cpm | % VC ([1]; 200 μG/Ml, exp 1): 2.23% | RT ACTIVITY (cpm) MEAN ([1]; 200 μG/Ml, exp 1): 1487 cpm | IC50 ([1]; ACH2, exp 1, Table 2): IC50 (μG/Ml) = 43.51 | IC50 ([1]; ACH-2, experiment 1, Table 1): 43.5 µg/mL | IC50 ([1]; ACH-2, experiment 2, Table 1): 8.9 µg/mL | ACH2 EC50 ([1]; exp 2, Table 4): 8.9 µg/mL | activity in the U1 assay [2]: inactive | % VC ([2]; 0.00063 ug/ml): 110.1% | % VC ([2]; 0.002 ug/ml): 105.4% | RT ACTIVITY (cpm) MEAN ([2]; 0.002 ug/ml): 3245 cpm | % VC ([2]; 0.00625 ug/ml): 99.9% | RT ACTIVITY (cpm) MEAN ([2]; 0.00625 ug/ml): 3077 cpm | % VC ([2]; 0.02 ug/ml): 94.2% | RT ACTIVITY (cpm) MEAN ([2]; 0.02 ug/ml): 2902 cpm | % VC ([2]; 0.0625 ug/ml): 93.9% | RT ACTIVITY (cpm) MEAN ([2]; 0.0625 ug/ml): 2891 cpm | % VC ([2]; 0.2 ug/ml): 101.2% | RT ACTIVITY (cpm) MEAN ([2]; 0.2 ug/ml): 3115 cpm | RT VALUES (cpm) MEAN ([2]; 0.625 ug/ml): 2504.7 cpm | X VC ([2]; 0.625 ug/ml): 106.3 | % VC ([2]; 0.625 ug/ml): 64.4% | RT ACTIVITY (cpm) MEAN ([2]; 0.625 ug/ml): 1984 cpm | RT VALUES (cpm) MEAN ([2]; 2 ug/ml): 2492.7 cpm | X VC ([2]; 2 ug/ml): 105.8 | % VC ([2]; 2 ug/ml): 59.7% | RT ACTIVITY (cpm) MEAN ([2]; 2 ug/ml): 1838 cpm | RT VALUES (cpm) MEAN ([2]; 6.25 ug/ml): 2813.0 cpm | X VC ([2]; 6.25 ug/ml): 119.4 | % VC ([2]; 6.25 ug/ml): 66.9% | RT ACTIVITY (cpm) MEAN ([2]; 6.25 ug/ml): 2059 cpm | RT VALUES (cpm) MEAN ([2]; 20 ug/ml): 2385.7 cpm | X VC ([2]; 20 ug/ml): 101.2 | % VC ([2]; 20 ug/ml): 63.2% | RT ACTIVITY (cpm) MEAN ([2]; 20 ug/ml): 1947 cpm | RT VALUES (cpm) MEAN ([2]; 62.5 ug/ml): 2253.7 cpm | X VC ([2]; 62.5 ug/ml): 95.6 | % VC ([2]; 62.5 ug/ml): 39.78% | RT ACTIVITY (cpm) MEAN ([2]; 62.5 ug/ml): 1225 cpm | RT VALUES (cpm) MEAN ([2]; 200 ug/ml): 802.7 cpm | X VC ([2]; 200 ug/ml): 34.1 | % VC ([2]; 200 ug/ml): 30.84% | RT ACTIVITY (cpm) MEAN ([2]; 200 ug/ml): 950 cpm | IC50 ([2]; U1, exp 2, Table 8): IC50 (uglml) = 43.99 | IC50 ([2]; U1, experiment 1, Table 1): 164 µg/mL | IC50 ([2]; U1, experiment 2, Table 1): 44 µg/mL | IC50 ([2]; U1/TNFα, exp 1, Table 3): IC50 (ug/ml) = ..164.40 | U1 EC50 ([2]; exp 2, Table 4): 44.0 µg/mL | TOXICITY VALUES (Cell Titer) MEAN (HeLa CD4 LTR β-gal cells; 3.2 μG/mL): 1.156 O. D. | TOXICITY VALUES (Cell Titer) MEAN (HeLa CD4 LTR β-gal cells; 10 μG/mL): 1.176 O. D. | % CC (HeLa CD4 LTR β-gal cells; 100 μG/mL): 22.6% | TOXICITY VALUES (Cell Titer) MEAN (HeLa CD4 LTR β-gal cells; 100 μG/mL): 0.259 O. D. | % CC (HeLa CD4 LTR β-gal cells; 320 μG/mL): 18.5% | TOXICITY VALUES (Cell Titer) MEAN (HeLa CD4 LTR β-gal cells; 320 μG/mL): 0.212 O. D. | % CC (HeLa CD4 LTR β-gal cells; 1000 μG/mL): 18.2% | TOXICITY VALUES (Cell Titer) MEAN (HeLa CD4 LTR β-gal cells; 1000 μG/mL): 0.208 O. D. | TC50 (HeLa CD4 LTR β-gal cells; HeLa CD4 LTR β-gal cells): 75 µg/mL | cytotoxic effects on the HeLa CD4 LTR β-gal cells (HeLa CD4 LTR β-gal cells; initial testing): no significant cytotoxic effects | inhibition of HIV replication (HIV): failed to inhibit

From patent publication US20030181436A1, “Treatment for AIDS, HIV, and other related diseases and compounds for use therewith” (priority 2001, published 2003)
